The values that follow are results of earlier work, collected in PMC9683570.

Counter-ions that a name gives are not always drawn. Like-named read-outs stand apart in the source and are kept apart here.

Data set [1] relates to hCaV1.2α, β2, α2δ1 subunits. Also noted: method as in PMID 30151907. The note with it: IonWorks Barracuda, ambient temperature, […] Ca2+, current at 0 mV step, 10 s interval, rundown adjusted; read-out: IC50 (Li et al. 2018).
Data set [2] deals with L-type Ca2+ current. On the set-up: method as in PMID 19367686. The note with it: 20–25 °C, 10 Ca2+.
The subject of another data set is hCaV1.2, β2, α2δ. The note with it: ambient, 1.8 Ca2+.
Data set [3] concerns CaVAb (voltage-dependent Ca2+-selective channel). The note with it: 13 Ba2+.
Another data set relates to hCav1.2. On the set-up: method as in PMID 23651875. The note with it: RT.
On the set-up of data set [4]: method as in DrugBank. The conditions noted are these: predicted, based on ChemAxon; ref DrugBank.
The subject of data set [5] is CaV1.2, α2δ, β2a. The conditions noted are these: 22–25 °C, 20 Ba2+.
Data set [6] has as its system CaV1.2, α2δ, β2a. The conditions noted are these: ~25 °C.
For the next data set, the system named is CaV1.2, α2δ, β1b. The note with it: read-out: IC50 (± SE); RT, 10 Ba2+.
Data set [7] concerns CaV1.2, α2δ, β2a along with Kir2.3. The conditions noted are these: 30 Ba2+.
Data set [8] deals with L-type Ca2+ current. The note with it: RT (22–25 °C), 2 Ca2+.
A further data set deals with NaV1.5 channels. The note with it: similar concentrations as tested on CaV1.2.
A further data set has as its system L-type Ca2+ channels. Also noted: method as in PMID 17909749. The note with it: from 22°C to 37°C.
Another data set deals with Ca2+ current (L-type). The note with it: peak current inhibited less potently than late current at end of step depolarization.

Broadly, the IC50 is the concentration that inhibits the measured activity by half. One may read the pIC50 as −log10 of the IC50, conventionally taken in molar units. With `COc1ccc(CCN(C)CCCC(C#N)(c2ccc(OC)c(OC)c2)C(C)C)cc1OC` (racemic) [Verapamil, (±)-verapamil hydrochloride], the IC50 is […] in [1]; 0.79 µM in the data set on L-type Ca2+ current [2]; […] in data set [3] (20 pulses at 1 Hz, read-out: IC50 (± SE)); […] in the data set with hCav1.2 (converted from pIC50). In addition, the “nH (± SE)” value with hCaV1.2, β2, α2δ was […]. In addition, the pIC50 in the data set on hCav1.2 is listed as […].
What is called Log P is a log measure of how a compound divides between an organic and an aqueous phase. Take `CC(C)COCC(CN(Cc1ccccc1)c1ccccc1)N1CCCC1` (stereo not drawn) [Bepridil]: the IC50 in data set [1] is 638 µM. Moreover, the “Log P” value in [4] is 5.49.
Take `CN(C)CCCN1c2ccccc2Sc2ccc(Cl)cc21` [Chlorpromazine]: in data set [1], the IC50 is 6.35 µM. Further, the “Log P” value in data set [4] is given as 4.54.
For `COc1ccc([C@@H]2Sc3ccccc3N(CCN(C)C)C(=O)[C@@H]2OC(C)=O)cc1` [Diltiazem, diltiazem hydrochloride], the IC50 in data set [1] was 31.6 µM; in the data set on CaV1.2, α2δ, β2a [5], 85 ± 9 µM; with L-type Ca2+ current [2], 30 µM; with hCaV1.2, β2, α2δ, 0.76 ± 0.08 µM; in [3] (20 ms single pulse from -120 mV, read-out: IC50, resting state block), 41 µM; in data set [3] (20 pulses at 1 Hz from -120 mV, read-out: IC50, use-dependent block), 10.4 µM. Also, the IC50 was 109 µM with CaV1.2, α2δ, β2a [6] (5 mM Ba2+, read-out: IC50 (± SE) (Ba2+) (converted)); 250 ± 16 µM in the data set on CaV1.2, α2δ, β2a [6] (1.8 Ca2+, read-out: IC50 (± SE) (Ca2+)); 65 ± 13 µM in the data set on CaV1.2, α2δ, β1b; 36 µM in [7] (read-out: IC50 (automated), PatchXpress 7000A, 22–26 °C); 44 µM in [7] (read-out: IC50 (manual), manual, 20–25 °C); 0.63 ± 0.05 µM in the data set on L-type Ca2+ current [8] (read-out: IC50 (± SE)). In addition, the “nH (± SE)” value with hCaV1.2, β2, α2δ is listed as 1.14 ± 0.15. The nH in the data set on L-type Ca2+ current [8] is given as 0.77.
`C=CCN1CC[C@]23c4c5ccc(O)c4O[C@H]2C(=O)CC[C@@]3(O)[C@H]1C5` [Naloxone, Naloxone hydrochloride]: the “nH on the peak and the late current” value in the data set with NaV1.5 channels is recorded as at least 0.8.
Consider `O=C1CC[C@@]2(O)[C@H]3Cc4ccc(O)c5c4[C@@]2(CCN3CC2CC2)[C@H]1O5` [Naltrexone, naltrexone hydrochloride], for which the “nH on the peak and the late current” value in the data set with NaV1.5 channels is on record as at least 0.8.
On to `Cc1nccn1CC1CCc2c(c3ccccc3n2C)C1=O` (stereo not drawn) [Ondansetron], for which, in [1], the IC50 was 9310 µM. In addition, in data set [4], the “Log P” value is listed as 2.35.
Regarding `CC(C)(C)c1ccc(C(O)CCCN2CCC(C(O)(c3ccccc3)c3ccccc3)CC2)cc1` (stereo not drawn) [Terfenadine], in data set [1], the IC50 is […]. Further, the “Log P” value in data set [4] is given as 6.48.
Turning to `Cc1c(-c2ccccc2)oc2c(C(=O)OCCN3CCCCC3)cccc2c1=O` [flavoxate], the “increase in block potency on raising the recording temperature” value with L-type Ca2+ channels is recorded as 2.2 X.
On to `COC(=O)C1=C(C)NC(C)=C(C(=O)OC)C1c1ccccc1[N+](=O)[O-]` [nifedipine], for which the “increase in block potency on raising the recording temperature” value in the data set on L-type Ca2+ channels was 7 X.
With `COCCOC(=O)C1=C(C)NC(C)=C(C(=O)OC(C)C)C1c1cccc([N+](=O)[O-])c1` (stereo not drawn) [nimodipine], in the data set with Ca2+ current (L-type), the “difference in the IC50s, peak vs late Ca2+ current” value is reported as 13.1 X.
